The target in test [1] is T1, bovine F1Fo-ATPase (Bos taurus, UniProt P13621).
T1 construct: bovine F1Fo-ATPase present in submitochondrial particles (SMPs); from tissue
The experiment in a line: ATP synthesis by F1Fo-ATPase in bovine submitochondrial particles (SMPs). The format is biochemical.

Test [2] addresses T1, bovine F1Fo-ATPase. The experiment in a line: ATP hydrolysis by F1Fo-ATPase in bovine submitochondrial particles (SMPs). The format is biochemical.
Test [3] has as its system Jurkat T cells. The experiment in a line: Early superoxide (O2-, ROS) response in Jurkat T cells. It counts as cell-based. The note with it: Homo sapiens, O2- response 1 h following incubation with drug. As for the experimental part:
(§1) Since an early mitochondrial superoxide (O2^−) mediates apoptosis induced by Bz-423, the O2^− response of cells 1 h following incubation with drug was examined, as well as cell death at 24 h, as previously described (see, e.g., Blatt, N. B., et al., 2002 J Clin Invest 110, 1123-1132; incorporated herein by reference in its entirety).

For test [4], the system named is Ramos B cells. The experiment in a line: Cell death in Ramos B cells. The format is cell-based. The following applies: Homo sapiens, cell death at 24 h. As for the experimental part:
as §1

The test system of test [5] is Ramos B cells. The experiment in a line: Early superoxide (O2-, ROS) response in Ramos B cells. It counts as cell-based. The following applies: Homo sapiens, O2- response 1 h following incubation with drug. As for the experimental part:
as §1

The subject of test [6] is Jurkat T cells. The experiment in a line: Cell death in Jurkat T cells. It counts as cell-based. The following applies: Homo sapiens, cell death at 24 h. As for the experimental part: as §1
The mark [7] stands for this setting: read-out: ATPase activity EC50, Synthesis.
The mark [8] stands for this setting: bovine SMPs, drug 0-300 μM, read-out: ATPase activity EC50, Hydrolysis.

Data on 4 compounds can be found in patent publication US20090203734A1, “F1F0-ATPASE INHIBITORS AND RELATED METHODS” (The Regents of the University of Michigan, priority 2008, published 2009).

By EC50 is commonly meant the concentration that produces a half-maximal response. In the case of `CN1C(=O)C(Cc2ccc3ccccc3c2)N=C(c2ccc(O)cc2)c2cc(Cl)ccc21` (stereo not drawn) [Bz-423], the results for the EC50 in test [1] (setting [7]) and in test [2] (setting [8]) were 5.5 µM and 8.9 µM, respectively.
The like results for `CN1C(=O)CN=C(c2ccc(Cl)cc2)c2cc(Cl)ccc21` [Compound 4-Cl-Dz, 4-chlorodiazepam] were, in that order, 210 µM and above 300 µM.
For `O=C1CN=C(c2ccccc2Cl)c2cc([N+](=O)[O-])ccc2N1` [Cz, clonazepam], in that order: 120 µM and 240 µM.
In the case of `CN1C(=O)CN=C(c2ccccc2)c2cc(Cl)ccc21` [Dz, diazepam], the EC50 is 200 µM in test [3]; 210 µM in test [1] (ATPase activity EC50, Synthesis); 250 µM in test [4]; above 300 µM in test [2]; 170 µM in test [5]; 170 µM in test [6].
